# ChEMBL document CHEMBL1138323 (J Med Chem, 2007)
# Key:
# Rattus norvegicus [1] = assay: Anticonvulsant activity in Sprague-Dawley rat by subcutaneous pentylenetetrazole test; format: functional; conditions: sc
# [2] = Solubility in water; format: physicochemical
# Rattus norvegicus [3] = organism: Rattus norvegicus; assay: Protective index, ratio of TD50 for Sprague-Dawley rat by rotarod test to ED50 for Sprague-Dawley rat by MES test; format: functional
# Rattus norvegicus [4] = organism: Rattus norvegicus; assay: Anticonvulsant activity in Sprague-Dawley rat by maximal electroshock seizure test; format: functional
# Rattus norvegicus [5] = organism: Rattus norvegicus; assay: Protective index, ratio of TD50 for Sprague-Dawley rat by rotarod test to ED50 for Sprague-Dawley rat by scMET test; format: functional
# [6] = Neurotoxicity in Sprague-Dawley rat by rotarod test; format: toxicity, organism-based; conditions: in vivo
# Mus musculus [7] = organism: Mus musculus; assay: Protective index, ratio of TD50 for Albino CF1 mouse to ED50 for Albino CF1 mouse by 6-Hz psychomotor seizure test at 32 mA current; format: functional
# [8] = Neurotoxicity in Albino CF1 mouse by rotarod test; format: toxicity, organism-based; conditions: in vivo
# Mus musculus [9] = organism: Mus musculus; assay: Protective index, ratio of TD50 for Albino CF1 mouse to ED50 for Albino CF1 mouse by 6-Hz psychomotor seizure test at 44 mA current; format: functional
# Mus musculus [10] = organism: Mus musculus; assay: Anticonvulsant activity in Albino CF1 mouse by 6-Hz psychomotor seizure test at 32 mA current; format: functional
# Mus musculus [11] = organism: Mus musculus; assay: Anticonvulsant activity in Albino CF1 mouse by 6-Hz psychomotor seizure test at 44 mA current; format: functional
# Mus musculus [12] = assay: Teratogenic effect in Swiss Webster Vancouver mouse assessed as embryo lethality at 520 mg/kg, ip; format: toxicity, organism-based; design: dose 520 mg/kg, route intraperitoneal; conditions: in vivo
# Mus musculus [13] = assay: Teratogenic effect in Swiss Webster Vancouver mouse assessed as exencephaly at 520 mg/kg, ip; format: toxicity, organism-based; design: dose 520 mg/kg, route intraperitoneal; conditions: in vivo
# Mus musculus [14] = assay: Teratogenic effect in Swiss Webster Vancouver mouse assessed as embryo lethality at 261 mg/kg, ip; format: toxicity, organism-based; design: dose 261 mg/kg, route intraperitoneal; conditions: in vivo
# Mus musculus [15] = assay: Teratogenic effect in Swiss Webster Vancouver mouse assessed as exencephaly at 167 mg/kg, ip; format: toxicity, organism-based; design: dose 167 mg/kg, route intraperitoneal; conditions: in vivo
# Mus musculus [16] = assay: Teratogenic effect in Swiss Webster Vancouver mouse assessed as exencephaly at 261 mg/kg, ip; format: toxicity, organism-based; design: dose 261 mg/kg, route intraperitoneal; conditions: in vivo
# Mus musculus [17] = assay: Induction of lethality in Swiss Webster Vancouver mouse dams at 3.6 mmol/kg, ip after 24 hrs; format: organism-based; conditions: in vivo
# Mus musculus [18] = assay: Teratogenic effect in Swiss Webster Vancouver mouse assessed as embryo lethality at 167 mg/kg, ip; format: toxicity, organism-based; design: dose 167 mg/kg, route intraperitoneal; conditions: in vivo
# Mus musculus [19] = assay: Teratogenic effect in Swiss Webster Vancouver mouse assessed as exencephaly at 205 mg/kg, ip; format: toxicity, organism-based; design: dose 205 mg/kg, route intraperitoneal; conditions: in vivo
# Mus musculus [20] = assay: Teratogenic effect in Swiss Webster Vancouver mouse assessed as embryo lethality at 205 mg/kg, ip; format: toxicity, organism-based; design: dose 205 mg/kg, route intraperitoneal; conditions: in vivo
# Mus musculus [21] = assay: Teratogenic effect in Swiss Webster Vancouver mouse assessed as exencephaly at 336 mg/kg, ip; format: toxicity, organism-based; design: dose 336 mg/kg, route intraperitoneal; conditions: in vivo
# Mus musculus [22] = assay: Teratogenic effect in Swiss Webster Vancouver mouse assessed as exencephaly at 503 mg/kg, ip; format: toxicity, organism-based; design: dose 503 mg/kg, route intraperitoneal; conditions: in vivo
# Mus musculus [23] = assay: Teratogenic effect in Swiss Webster Vancouver mouse assessed as embryo lethality at 503 mg/kg, ip; format: toxicity, organism-based; design: dose 503 mg/kg, route intraperitoneal; conditions: in vivo
# [24] = Teratogenic effect in Swiss Webster Vancouver mouse assessed as embryo lethality at 336 mg/kg, ip; format: toxicity, organism-based; design: dose 336 mg/kg, route intraperitoneal; conditions: in vivo, read-out: Activity
# Mus musculus [25] = assay: Induction of lethality in Swiss Webster Vancouver mouse dams at 1.8 mmol/kg, ip after 24 hrs; format: organism-based; conditions: in vivo
# Mus musculus [26] = assay: Induction of lethality in Swiss Webster Vancouver mouse dams at 2.7 mmol/kg, ip after 24 hrs; format: organism-based; conditions: in vivo
solubility [2] [µg/mL],Compound,ED50 (Rattus norvegicus [1]) [mg/kg],Ratio TD50/ED50 (Rattus norvegicus [3]),ED50 (Rattus norvegicus [4]) [mg/kg],Ratio TD50/ED50 (Rattus norvegicus [5]),TD50 [6] [mg/kg],Ratio TD50/ED50 (Mus musculus [7]),TD50 [8] [mg/kg],Ratio TD50/ED50 (Mus musculus [9]),ED50 (Mus musculus [10]) [mg/kg],ED50 (Mus musculus [11]) [mg/kg],other results
< 50,CCCCCCCC(=O)NC(N)=O,> 300,1.4,> 300,1.2,> 300,,,,,,
,CCC[C@@H](C(N)=O)C(C)C,22,1.7,47,3.7,82,,,,,,
1300,CCCC(CCC)C(=O)O [VALPROIC ACID],,,,,,,,,,,
,CC(C)C(C(N)=O)C(C)C,60,1.4,51,1.2,72,,,,> 100,> 100,
,CCC[C@@H](C(=O)O)C(C)C,,,,,,,,,,,Activity (Mus musculus [12]): 4.3%; Activity (Mus musculus [13]): 0%
,CCC[C@H](C(=O)O)C(C)C,,,,,,,,,,,Activity (Mus musculus [12]): 5.8%; Activity (Mus musculus [13]): 0%
3700,CCCC(CCC)C(N)=O [VALPROMIDE],,,,,,,,,,,
,CCC[C@H](C(N)=O)C(C)C,38,1.3,63,2.2,83,,,,,,
,CCCC(C(N)=O)C(C)C (racemic),27,1.7,50,3.2,87,,,,,,
,CCC[C@H](C(=O)NC(N)=O)C(C)C,37,6.5,18,3.2,118,<6.5,100,<4,46,75,Activity (Mus musculus [19]): 0.8%; Activity (Mus musculus [20]): 6.8%; Activity (Mus musculus [21]): 5.7%; Activity (Mus musculus [22]): 4.3%; Activity (Mus musculus [23]): 40.7%; mortality [24]: 10.2%
,CCC[C@@H](C(=O)NC(N)=O)C(C)C,22,3.4,36,5.6,124,2.7,118,2.1,43,56,Activity (Mus musculus [19]): 0%; Activity (Mus musculus [20]): 7.1%; Activity (Mus musculus [21]): 15.4%; Activity (Mus musculus [22]): 17.5%; Activity (Mus musculus [23]): 65.7%; mortality [24]: 54.4%
270,CC(C)C(C(=O)NC(N)=O)C(C)C,,1.7,,3.5,,<2.3,> 50,<2,43,49,
,CCCC(C(=O)O)C(C)C (racemic),,,,,,>2,> 300,,149,,Activity (Mus musculus [12]): 5.5%; Activity (Mus musculus [13]): 0%

Compound,solubility [2] [µg/mL],ED50 (Rattus norvegicus [1]) [mg/kg],Ratio TD50/ED50 (Rattus norvegicus [3]),ED50 (Rattus norvegicus [4]) [mg/kg],Ratio TD50/ED50 (Rattus norvegicus [5]),TD50 [6] [mg/kg],Ratio TD50/ED50 (Mus musculus [7]),TD50 [8] [mg/kg],Ratio TD50/ED50 (Mus musculus [9]),ED50 (Mus musculus [10]) [mg/kg],ED50 (Mus musculus [11]) [mg/kg],other results
CCCC(C(=O)NC(N)=O)C(C)C (racemic),130,,5.9,,2.1,95,<2,50,<1.4,42,,
CCCC(CCC)C(=O)NC(N)=O,120,77,4.3,54,3,,<1.7,> 50,,58,105,Activity (Mus musculus [14]): 41.2%; Activity (Mus musculus [15]): 0.9%; Activity (Mus musculus [16]): 13.7%; Activity (Mus musculus [17]): Toxic; Activity (Mus musculus [18]): 12.9%
CCC(C)C(CC)C(=O)NC(N)=O (configuration not stated) [CAPURIDE],280,,4,,6.9,97,<4.7,50,<2.1,,,Activity (Mus musculus [19]): 2.7%; Activity (Mus musculus [20]): 39%; Activity (Mus musculus [25]): Toxic; Activity (Mus musculus [26]): Toxic
